Source: patent US5759836A, “Osteoarthritis-associated inducable isoform of nitric oxide synthetase” (priority 1995, dated 1998)

How the values were obtained:
iNOS [1] = assay: iNOS expression in stimulated rat chondrosarcomas; format: cell-based
Procedure: NSAIDs were tested in: (FIG. 5A) rat chondrosarcomas stimulated with LPS, and (FIG. 5B) unstimulated OA cartilage (n=3).

iNOS [2] = assay: Nitrite accumulation in LPS-stimulated RAW 264.7 murine macrophages (Griess method); format: cell-based; conditions: for further inhibition of nitrite accumulation above that observed at 3 mM: suprapharmacological
Procedure: Effects of NSAIDs on Nitrite Accumulation. […] The expression and activity of iNOS were monitored by estimation of the stable end-product: nitrites.
concentrations of NSAIDs for 2 h followed by addition of 100 ng/ml of LPS
After 16-18 h of incubation, the medium was used to estimate the
accumulation of nitrite by the Greiss method (Green et al., Anal Biochem.
The specific activity of iNOS was determined in cellfre
extracts at a given time period as described. The nitrite and specific
activity data are representative of mean ± SD value, as determined by
student t test, for 10 and 4 independent experiments, respectively. The p
values described are compared with LPSstimulated cells. […]

With `CC(=O)Oc1ccccc1C(=O)O` [Aspirin, aspirin] the “inhibition of iNOS expression in rat chondrosarcomas” value (iNOS [1]; 72 h, added 1 h prior to cytokines) was ~ 57%, the “effect on iNOS in rat chondrosarcomas” value (iNOS [1]; LPS/cytokine-stimulated, L-NMMA 500 μM, indomethacin 20 μM) was “significant inhibition of iNOS” and the “Nitrite released, Nitrite” value (iNOS [2]; 1 mM, LPS 100 ng/ml, 16-18 h) was 26.6 ± 4.3 µM. The “Nitrite released, Nitrite” value (iNOS [2]; 2 mM, LPS 100 ng/ml, 16-18 h) was 22.9 ± 5.3 µM, the “Nitrite released, Nitrite” value (iNOS [2]; 3 mM, LPS 100 ng/ml, 16-18 h) was 20.3 ± 3.9 µM and the “further inhibition of nitrite accumulation above that observed at 3 mM” value (iNOS [2]; 5 mM) was 50%. The “further inhibition of nitrite accumulation above that observed at 3 mM” value (iNOS [2]; 10 mM) was 80%, the inhibition at 1000 µM (iNOS [2]; Mus musculus, RAW264.7, read-out: Nitrite released, % inhibition, 1 mM, LPS 100 ng/ml, 16-18 h) was 10% and the inhibition at 2000 µM (iNOS [2]; Mus musculus, RAW264.7, read-out: Nitrite released, % inhibition, 2 mM, LPS-stimulated, 16-18 h) was 22%. It also gave an inhibition at 3000 µM (iNOS [2]; Mus musculus, RAW264.7, read-out: Nitrite released, % inhibition, 3 mM, LPS 100 ng/ml, 16-18 h) of 32%.
